# Experimental data as given in patent publication US20050107423A1, “Quinolone antibacterial agents” (priority 2003, published 2005).
# Assays:
# Assay in all cases: Antibacterial assay, microtitration MIC (Test A)
# Format in all cases: cell-based
# S. pneumo SV-1 = conditions: Gram Positive Bacteria, strain SV-1; for MIC: read-out: Minimum Inhibitory Concentrations S. pneumo SV-1
# Description: (§1) The compounds of the present invention were tested against an assortment of Gram-negative and Gram-positive organisms using standard microtitration techniques (Cohen et. al., Antimicrob., 1985;28:766; Heifetz, et. al., Antimicrob., 1974;6:124). The results of the evaluation are shown in Tables 1A and B, wherein “-” means no data.
# E. faecalis MGH-2 = conditions: strain MGH-2; for MIC: Enterococcus faecalis, MGH2, Gram Positive Bacteria, read-out: Minimum Inhibitory Concentrations E. faecalis MGH-2; for Minimum Inhibitory Concentrations E. faecalis MGH-2: Gram Positive Bacteria
# Description: as §1
# S. aureus UC-76 = conditions: strain UC-76; for MIC: Staphylococcus aureus, UC76, Gram Positive Bacteria, read-out: Minimum Inhibitory Concentrations S. aureus UC-76; for Minimum Inhibitory Concentrations S. aureus UC-76: Gram Positive Bacteria
# Description: as §1
# S pyogenes C203 = conditions: Gram Positive Bacteria, strain C203; for MIC: read-out: Minimum Inhibitory Concentrations S pyogenes C203
# Description: as §1
# E. coli EC-2549 = conditions: Escherichia coli, EC2549, Gram Negative Bacteria; strain EC-2549; read-out: Minimum Inhibitory Concentrations E. coli EC-2549
# Description: as §1
# M. catarrhalis BC-3531 = conditions: Moraxella catarrhalis, BC3531, Gram Negative Bacteria; strain BC-3531; read-out: Minimum Inhibitory Concentrations M. catarrhalis BC-3531
# Description: as §1
# H. influenzae HI-3542 = conditions: Haemophilus influenzae, HI3542, Gram Negative Bacteria; strain HI-3542; read-out: Minimum Inhibitory Concentrations H. influenzae HI-3542
# Description: as §1
Compound,MIC (S. pneumo SV-1) [mg/L],MIC (E. faecalis MGH-2) [mg/L],MIC (S. aureus UC-76) [mg/L],MIC (S pyogenes C203) [mg/L],other results
COc1c(N2CCC(C3(O)CC3)C2)c(F)cc2c(=O)c(C(=O)O)cn(C3CC3)c12 (stereo not shown) [drawing 360],0.125,0.125,0.015,0.25,–
O=C(O)c1cn(C2CC2)c2c(OC(F)F)c(N3C[C@@H](CCO)[C@@H](CCO)C3)c(F)cc2c1=O [drawing 416],0.125,0.125,0.008,0.125,–
COc1c(N2CCC(CO)(CO)C2)c(F)cc2c(=O)c(C(=O)O)cn(C3CC3)c12 [drawing 377],0.25,0.5,0.06,0.25,–
COc1c(N2CCC(C(O)C3(O)CC3)C2)c(F)cc2c(=O)c(C(=O)O)cn(C3CC3)c12 (stereo not shown) [drawing 361],0.25,0.5,0.015,0.25,–
Cc1c(N2CC(C)(CO)C(C)(CO)C2)c(F)cc2c(=O)c(C(=O)O)cn(C3CC3)c12 (stereo not shown) [drawing 439],–,–,–,–,Minimum Inhibitory Concentrations S. pneumo SV-1 (S. pneumo SV-1): 0.25 µg/mL; Minimum Inhibitory Concentrations E. faecalis MGH-2 (E. faecalis MGH-2): 0.25 µg/mL; Minimum Inhibitory Concentrations S. aureus UC-76 (S. aureus UC-76): 0.15 µg/mL; Minimum Inhibitory Concentrations S pyogenes C203 (S pyogenes C203): 0.25 µg/mL
COc1c(N2CC3CC(O)C(O)C3C2)c(F)cc2c(=O)c(C(=O)O)cn(C3CC3)c12 (stereo not shown),0.25,0.25,0.008,0.25,–
O=C(O)c1cn(C2CC2)c2c(OC(F)F)c(N3CC4CC(O)C(O)C4C3)c(F)cc2c1=O (stereo not shown) [drawing 459],0.25,0.25,0.008,0.5,–
Cc1c(N2C[C@@H]3CC[C@@H](O)[C@@H]3C2)c(F)cc2c(=O)c(C(=O)O)cn(C3CC3)c12 [drawing 453],0.03,0.06,0.004,0.06,–
Nc1nc(-n2cc(C(=O)O)c(=O)c3cc(F)c(N4C[C@@H](CO)[C@@H](CO)C4)c(Cl)c32)c(F)cc1F [drawing 402],0.5,2,0.125,0.5,–
COc1c(N2CCC(CO)C2)c(F)cc2c(=O)c(C(=O)O)cn(C3CC3)c12 (stereo not shown) [drawing 342],0.06,0.06,0.00403,0.06,–
Cc1c(N2C[C@@H](COC(=O)C(C)C)[C@@H](COC(=O)C(C)C)C2)c(F)cc2c(=O)c(C(=O)O)cn(C3CC3)c12 [drawing 413],0.125,4,1,0.25,–
CCC(=O)OC[C@@H]1CN(c2c(F)cc3c(=O)c(C(=O)O)cn(C4CC4)c3c2C)C[C@@H]1COC(=O)CC [drawing 412],0.06,0.5,0.03,0.125,–
COc1c(N2C[C@@H](CCO)[C@@H](CCO)C2)c(F)cc2c(=O)c(C(=O)O)cn(C3CC3)c12 [drawing 415],0.06,0.125,0.004,0.06,–
Cc1c(N2CC(C)(CO)C(C)(CO)C2)c(F)cc2c(=O)c(C(=O)O)cn(C3CC3)c12 (stereo not shown) [drawing 440],0.5,–,–,–,Minimum Inhibitory Concentrations E. faecalis MGH-2 (E. faecalis MGH-2): 1 µg/mL; Minimum Inhibitory Concentrations S. aureus UC-76 (S. aureus UC-76): 0.015 µg/mL; Minimum Inhibitory Concentrations S pyogenes C203 (S pyogenes C203): 1 µg/mL
COc1c(N2C[C@@H]3CC[C@@](O)(CO)[C@@H]3C2)c(F)cc2c(=O)c(C(=O)O)cn(C3CC3)c12 [drawing 460],0.25,0.25,0.015,0.5,–
Cc1c(N2CC(C(O)CO)C3(CC3)C2)c(F)cc2c(=O)c(C(=O)O)cn(C3CC3)c12 (stereo not shown) [drawing 431],0.125,0.125,0.008,0.125,–
Cc1c(N2CCC(C(O)C(F)F)C2)c(F)cc2c(=O)c(C(=O)O)cn(C3CC3)c12 (stereo not shown) [drawing 343],0.06,0.06,0.004,0.125,–

Compound,MIC (S. pneumo SV-1) [mg/L],MIC (E. faecalis MGH-2) [mg/L],MIC (S. aureus UC-76) [mg/L],MIC (S pyogenes C203) [mg/L],other results
COc1c(N2C[C@H](CO)[C@@H](CO)C2)c(F)cc2c(=O)c(C(=O)O)cn(C3CC3)c12 [drawing 404],0.125,0.125,0.008,0.125,–
Cc1c(N2CCC(C(F)(F)CO)C2)c(F)cc2c(=O)c(C(=O)O)cn(C3CC3)c12 (stereo not shown) [drawing 368],0.06,0.125,0.008,0.25,–
Cc1c(N2CC(C(O)CO)C(C)(C)C2)c(F)cc2c(=O)c(C(=O)O)cn(C3CC3)c12 (stereo not shown) [drawing 434],0.125,0.125,0.008,0.125,–
Cc1c(N2CCC(CCO)C2)c(F)cc2c(=O)c(C(=O)O)cn(C3CC3)c12 (stereo not shown) [drawing 341],0.03,2,0.125,0.06,–
CC(=O)OC[C@@H]1CN(c2c(F)cc3c(=O)c(C(=O)O)cn(C4CC4)c3c2C)C[C@@H]1COC(C)=O [drawing 411],0.06,0.125,0.015,0.125,–
Cc1c(N2CC(CO)C3(CC3)C2)c(F)cc2c(=O)c(C(=O)O)cn(C3CC3)c12 (stereo not shown) [drawing 428],0.06,0.06,0.004,0.06,–
Cc1c(N2CC3(CO)CCCC3(CO)C2)c(F)cc2c(=O)c(C(=O)O)cn(C3CC3)c12 (stereo not shown) [drawing 463],0.06,0.125,0.004,0.125,–
Cc1c(N2C[C@@H]3C[C@@H](O)[C@@H](O)[C@@H]3C2)c(F)cc2c(=O)c(C(=O)O)cn(C3CC3)c12 [drawing 457],0.125,0.125,0.008,0.125,–
Nc1nc(-n2cc(C(=O)O)c(=O)c3cc(F)c(N4C[C@@H](O)[C@@H](O)C4)nc32)c(F)cc1F [drawing 399],0.5,0.5,0.125,0.25,–
COC[C@H]1CN(c2c(F)cc3c(=O)c(C(=O)O)cn(C4CC4)c3c2C)C[C@H]1CO [drawing 406],0.03,0.125,0.004,0.06,–
COCCOCC(O)C1CN(c2c(F)cc3c(=O)c(C(=O)O)cn(C4CC4)c3c2C)CC1(C)C (stereo not shown) [drawing 433],1,0.5,0.03,1,–
O=C(O)c1cn(C2CC2)c2c(Cl)c(N3CC(CO)C4(CC4)C3)c(F)cc2c1=O (stereo not shown) [drawing 421],–,–,–,–,MIC (E. coli EC-2549): 0.06 mg/L; MIC (M. catarrhalis BC-3531): 0.008 mg/L; MIC (H. influenzae HI-3542): 0.004 mg/L
COc1c(N2C[C@@H]3CC[C@@H](O)[C@@H]3C2)c(F)cc2c(=O)c(C(=O)O)cn(C3CC3)c12 [drawing 443],–,–,–,–,MIC (E. coli EC-2549): 0.25 mg/L; MIC (M. catarrhalis BC-3531): 0.03 mg/L; MIC (H. influenzae HI-3542): 0.03 mg/L
Cc1c(N2CCC(C(O)(CO)C(F)(F)F)C2)c(F)cc2c(=O)c(C(=O)O)cn(C3CC3)c12 (stereo not shown) [drawing 338],–,–,–,–,MIC (E. coli EC-2549): 0.5 mg/L; MIC (M. catarrhalis BC-3531): 0.06 mg/L; MIC (H. influenzae HI-3542): 0.06 mg/L
Cc1c(N2CCC(CCO)C2)c(F)cc2c(=O)c(C(=O)O)cn(C3CC3)c12 (stereo not shown) [drawing 308],–,–,–,–,MIC (E. coli EC-2549): 0.06 mg/L; MIC (M. catarrhalis BC-3531): 0.015 mg/L; MIC (H. influenzae HI-3542): 0.03 mg/L
Cc1c(N2C[C@@H]3C[C@@H](O)[C@@H](O)[C@@H]3C2)c(F)cc2c(=O)c(C(=O)O)cn(C3CC3)c12 [drawing 446],–,–,–,–,MIC (E. coli EC-2549): 0.125 mg/L; MIC (M. catarrhalis BC-3531): 0.03 mg/L; MIC (H. influenzae HI-3542): 0.008 mg/L
